{"source": "patent US8242123B2", "about": "“Insecticidal methods using 4-amino-5-chloro-thieno[2,3-d]-pyrimidine compounds” (Merial Limited, priority 2006, dated 2012)", "assay_type_in_all_cases": "in vivo", "key": {"[1]": {"system": "Cotton Aphid (aphis gossypii), Mixed Life Stages", "assay": "Cotton aphid, mixed life stages, infested cotyledon dip test", "conditions": "300 ppm; comparative test", "procedure": "(§1) In the following tests, if not precised otherwise, the formulated solutions of some of the compound examples were diluted to an active ingredient concentration of 300 ppm, and the diluted solutions were applied in the below mentioned tests.\nThe active compounds were formulated in 50:50 acteone/water and 100 ppm Kinetic™ surfactant\nCotton plants at the cotyledon stage were infested prior to treatment by placing a heavily infested leaf from the main aphid colony on top of each cotyledon. The aphids were allowed to transfer overnight and the host leaf was removed. The infested cotyledons were then dipped and agitated in the test solution for 3 seconds and allowed to dry in a fume hood. Test plants were maintained under fluorescent lighting in a 24-hr photoperiod at 25° C. and 20-40% relative humidity. Aphid mortality on the treated plants, relative to mortality on untreated check plants, was determined after 5 days.\n(§2) The biological activity in tables B.1 and B.2 was evaluated on scale range from 0% as showing no biological activity to 100% as having total control. The comparative biological tests were conducted as described above."}, "[2]": {"system": "Southern Armyworm (spodoptera eridania), 2nd-3rd Instar Larvae", "assay": "Southern armyworm, lima bean foliage dip test", "conditions": "for biological activity (0% no activity to 100% total control), Spodoptera eridania: 300 ppm, comparative test", "procedure": "as §1\nThe active compounds were formulated as a 10.000 ppm solution in a mixture of 35% acetone and water, which was diluted with water, if needed.\nSieva lima bean foliage, expanded to the first true leaves, were dipped and agitated in the test solution for 3 seconds and then allowed to dry in a fume hood. The treated plant was then placed in 25-cm plastic perforated zip enclosure bags, ten 2nd-instar larvae were added, and the bags sealed. After 4 days, observations were made of mortality, plant feeding, and of any interference with larval growth.\nas §2"}, "[3]": {"system": "Green Peach Aphid (Myzus persicae), Mixed Life Stages", "assay": "Green peach aphid, mixed life stages, bell pepper leaf dip test", "conditions": "300 ppm; comparative test", "procedure": "as §1\nBell pepper plants at the first true-leaf stage were infested prior to treatment by placing heavily infested leaves from the main aphid colony on top of the treatment plants. The aphids were allowed to transfer overnight to accomplish an infestation of 30-40 aphids per plant and the host leaves were removed. The infested leaves of the test plants were then dipped and agitated in the test solution for 3 seconds and allowed to dry in a fume hood. Test plants were maintained under fluorescent lighting in a 24-hr photoperiod at 25° C. and 20-40% relative humidity. Aphid mortality on the treated plants, relative to mortality on untreated check plants, was determined after 5 days.\nas §2"}, "[4]": {"system": "Silverleaf Whitefly (Bemisia argentifolii)", "assay": "Silverleaf whitefly, cotton cotyledon dip test", "conditions": "for biological activity (0% no activity to 100% total control), Bemesia argentifolia: 300 ppm, comparative test; for mortality at 100 ppm: Bemisia argentifolii, 72 h, 3 days after treatment, adults on cotton cotyledons, read-out: mortality compared to untreated controls (silverleaf whitefly)", "procedure": "as §1\n(§3) The active compounds were formulated in 50:50 acetone:water and 100 ppm Kinetic™ surfactant.\nSelected cotton plants were grown to the cotyledon state (one plant per pot). The cotyledons were dipped into the test solution to provide complete coverage of the foliage and placed in a well-vented area to dry. Each pot with treated seedling was placed in a plastic cup and 10 to 12 whitefly adults (approximately 3-5 day old) were introduced. The insects were colleted using an aspirator and an 0.6 cm, non-toxic TygonO tubing (R-3603) connected to a barrier pipette tip. The tip, containing the collected insects, was then gently inserted into the soil containing the treated plant, allowing insects to crawl out of the tip to reach the foliage for feeding. The cups were covered with a reusable screened lid (150 micron mesh polyester screen PeCap from Tetko Inc). Test plants were maintained in the holding room at about 25° C. and 20-40% relative humidity for 3 days avoiding direct exposure to the fluorescent light (24 hour photoperiod) to prevent trapping of heat inside the cup. Mortality was assessed 3 days after treatment of the plants.\nas §2"}, "[5]": {"system": "Rice Plant Hopper (Nilaparvata lugens)", "assay": "Rice plant hopper, sprayed rice seedlings", "conditions": "for biological activity (0% no activity to 100% total control), Nilaparvata lugens: 300 ppm, comparative test; for mortality at 100 ppm: Nilaparvata lugens, after 72 hours, rice seedlings sprayed, 10 adults", "procedure": "as §1\n(§4) Rice seedlings were cleaned and washed 24 hours before spraying. The active compounds were formulated in 50:50 acetone:water and 0.1% vol/vol surfactant (EL 620) was added. Potted rice seedlings were sprayed with 5 ml test solution, air dried, placed in cages and inoculated with 10 adults. Treated rice plants were kept at 28-29° C. and relative humidity of 50-60%. Percent mortality was recorded after 72 hours.\nas §2"}, "[6]": {"system": "Colorado Potato Beetle (Leptinotarsa decemlineata)", "assay": "Colorado potato beetle, potato leaf dip test", "conditions": "foliar, 120 h, 5 days after treatment, larvae on dipped potato leaves, read-out: mortality compared to untreated controls (Colorado potato beetle)", "procedure": "as §1\nPotato plants were utilized for bioassays. Excised plant leaves were dipped into 1:1 acetone/water dilutions of the active compounds. After the leaves had dried, they were individually placed onto water-moistened filter paper on the bottoms of Petri dishes.\nEach dish was infested with 5-7 larvae and covered with a lid. Each treatment dilution was replicated 4 times. Test dishes were held at approximately 27° C. and 60% humidity. Numbers of live and morbid larvae were assessed in each dish at 5 days after treatment application, and mortality percentage was calculated."}, "[7]": {"system": "Rice Green Leafhopper (Nephotettix virescens)", "assay": "Rice green leafhopper, sprayed rice seedlings", "conditions": "after 72 hours, 10 adults", "procedure": "as §1\nas §4, with “acetone:water,” for “acetone:water”"}, "Bean Aphid (aphis fabae)": {"system": "Bean Aphid (aphis fabae)", "assay": "Bean aphid, nasturtium plant dip test", "conditions": "72 h, after 3 days, nasturtium plants dipped", "procedure": "as §1, §3\nNasturtium plants grown in Metro mix in the 1st leaf-pair stage (variety ‘Mixed Jewle’) were infested with approximately 2-30 laboratory-reared aphids by placing infested cut plants on top of the test plants. The cut plants were removed after 24 hr. Each plant was dipped into the test solution to provide complete coverage of the foliage, stem, protruding seed surface and surrounding cube surface and allowed to dry in the fume hood. The treated plants were kept at about 25° C. with continuous fluorescent light. Aphid mortality was determined after 3 days."}, "[8]": {"system": "Cowpea Aphid (aphis craccivora)", "assay": "Cowpea aphid, sprayed potted cowpea plants", "conditions": "population reduction recorded after 24, 72 and 120 hours", "procedure": "as §1\nThe active compounds were formulated in 50:50 acetone:water. Potted cowpea plants colonized with 100-150 aphids of various stages were sprayed after the pest population has been recorded. Population reduction was recorded after 24, 72, and 120 hours."}}, "data": [{"smiles": "CC(C)(C)[C@H]1CC[C@@H](Nc2ncnc3scc(Cl)c23)CC1", "note": "[drawing 15]", "values": [{"measurement": "biological activity (0% no activity to 100% total control), Aphis gossypii", "setting": "[1]", "value": 100, "unit": "%"}, {"measurement": "biological activity (0% no activity to 100% total control), Spodoptera eridania", "setting": "[2]", "value": 100, "unit": "%"}, {"measurement": "biological activity (0% no activity to 100% total control), Myzus persicae", "setting": "[3]", "value": 100, "unit": "%"}, {"measurement": "biological activity (0% no activity to 100% total control), Bemesia argentifolia", "setting": "[4]", "value": 100, "unit": "%"}, {"measurement": "biological activity (0% no activity to 100% total control), Nilaparvata lugens", "setting": "[5]", "value": 100, "unit": "%"}]}, {"smiles": "CC(Nc1ncnc2scc(Cl)c12)c1ccc(OC(F)(F)F)cc1", "note": "(centres unmarked) [Compound 2, (5-Chloro-thieno[2,3-d]pyrimidin-4-yl)-[1-(4-trifluoromethoxy-phenyl)-ethyl]-amine]", "values": [{"measurement": "mortality at 100 ppm", "setting": "[6]", "value": "≥ 90", "unit": "%"}, {"measurement": "mortality at 100 ppm", "setting": "[7]", "value": "≥ 60", "unit": "%"}, {"measurement": "mortality at 100 ppm", "setting": "[4]", "value": "≥ 90", "unit": "%"}, {"measurement": "mortality at 100 ppm", "setting": "Bean Aphid (aphis fabae)", "value": "≥ 60", "unit": "%"}, {"measurement": "mortality at 100 ppm", "setting": "[8]", "value": "≥ 75", "unit": "%"}, {"measurement": "mortality at 100 ppm", "setting": "[5]", "value": "≥ 90", "unit": "%"}]}, {"smiles": "C[C@H](Nc1ncnc2scc(Cl)c12)c1ccccc1", "note": "[reference compound]", "values": [{"measurement": "biological activity (0% no activity to 100% total control), Aphis gossypii", "setting": "[1]", "value": 100, "unit": "%"}, {"measurement": "biological activity (0% no activity to 100% total control), Myzus persicae", "setting": "[3]", "value": 100, "unit": "%"}, {"measurement": "biological activity (0% no activity to 100% total control), Bemesia argentifolia", "setting": "[4]", "value": 0, "unit": "%"}, {"measurement": "biological activity (0% no activity to 100% total control), Nilaparvata lugens", "setting": "[5]", "value": 0, "unit": "%"}]}, {"smiles": "CC(C)(C)[C@H]1CC[C@@H](Nc2ncnc3scc(Cl)c23)CC1", "note": "[Compound 6, cis-(4-tert-Butyl-cyclohexyl)-(5-chloro-thieno[2,3-d]pyrimidin-4-yl)-amine]", "values": [{"measurement": "mortality at 100 ppm", "setting": "[6]", "value": "≥ 90", "unit": "%"}, {"measurement": "mortality at 100 ppm", "setting": "[7]", "value": "≥ 60", "unit": "%"}, {"measurement": "mortality at 100 ppm", "setting": "[4]", "value": "≥ 90", "unit": "%"}, {"measurement": "mortality at 100 ppm", "setting": "Bean Aphid (aphis fabae)", "value": "≥ 60", "unit": "%"}, {"measurement": "mortality at 100 ppm", "setting": "[8]", "value": "≥ 75", "unit": "%"}, {"measurement": "mortality at 100 ppm", "setting": "[5]", "value": "≥ 90", "unit": "%"}]}, {"smiles": "FC(F)(F)Oc1ccc(CCNc2ncnc3scc(Cl)c23)cc1", "note": "[Compound 5, (5-Chloro-thieno[2,3-d]pyrimidin-4-yl)-[2-(4-trifluoromethoxy-phenyl)-ethyl]-amine]", "values": [{"measurement": "mortality at 100 ppm", "setting": "[2]; Spodoptera eridania, foliar, 96 h, 100 ppm, after 4 days, lima bean foliage dipped, read-out: mortality in comparison with untreated controls (southern armyworm)", "value": "≥ 60", "unit": "%"}, {"measurement": "mortality at 100 ppm", "setting": "[6]", "value": "≥ 90", "unit": "%"}, {"measurement": "mortality at 100 ppm", "setting": "[7]", "value": "≥ 60", "unit": "%"}, {"measurement": "mortality at 100 ppm", "setting": "[4]", "value": "≥ 90", "unit": "%"}, {"measurement": "mortality at 100 ppm", "setting": "[8]", "value": "≥ 75", "unit": "%"}, {"measurement": "mortality at 100 ppm", "setting": "[5]", "value": "≥ 90", "unit": "%"}]}, {"smiles": "[H][C@H]1CC[C@H](Nc2ncnc3scc(Cl)c23)CC1", "note": "[reference compound]", "values": [{"measurement": "biological activity (0% no activity to 100% total control), Aphis gossypii", "setting": "[1]", "value": 75, "unit": "%"}, {"measurement": "biological activity (0% no activity to 100% total control), Spodoptera eridania", "setting": "[2]", "value": 0, "unit": "%"}, {"measurement": "biological activity (0% no activity to 100% total control), Myzus persicae", "setting": "[3]", "value": 50, "unit": "%"}, {"measurement": "biological activity (0% no activity to 100% total control), Bemesia argentifolia", "setting": "[4]", "value": 0, "unit": "%"}, {"measurement": "biological activity (0% no activity to 100% total control), Nilaparvata lugens", "setting": "[5]", "value": 0, "unit": "%"}]}]}
